Measurements as given in EP1068184B1, “N-ARYLOXYETHYLAMINE DERIVATIVES FOR THE TREATMENT OF DEPRESSION” (Wyeth, priority 1998, dated 1999).

Tests used:
serotonin transporter = molecular target: T1, serotonin transporter (Rattus norvegicus, UniProt P31652); test: serotonin transporter affinity, 3H-paroxetine binding to frontal cortical membranes; design: species or system male Sprague-Dawley rats; conditions: 3H-paroxetine 0.1 nM, rat frontal cortical membranes; read-out: ST (Ki)
T1 construct: frontal cortical membranes prepared from male Sprague-Dawley rats; from tissue; host or cells: rat frontal cortex membranes
T1 sequence (P31652 whole entry): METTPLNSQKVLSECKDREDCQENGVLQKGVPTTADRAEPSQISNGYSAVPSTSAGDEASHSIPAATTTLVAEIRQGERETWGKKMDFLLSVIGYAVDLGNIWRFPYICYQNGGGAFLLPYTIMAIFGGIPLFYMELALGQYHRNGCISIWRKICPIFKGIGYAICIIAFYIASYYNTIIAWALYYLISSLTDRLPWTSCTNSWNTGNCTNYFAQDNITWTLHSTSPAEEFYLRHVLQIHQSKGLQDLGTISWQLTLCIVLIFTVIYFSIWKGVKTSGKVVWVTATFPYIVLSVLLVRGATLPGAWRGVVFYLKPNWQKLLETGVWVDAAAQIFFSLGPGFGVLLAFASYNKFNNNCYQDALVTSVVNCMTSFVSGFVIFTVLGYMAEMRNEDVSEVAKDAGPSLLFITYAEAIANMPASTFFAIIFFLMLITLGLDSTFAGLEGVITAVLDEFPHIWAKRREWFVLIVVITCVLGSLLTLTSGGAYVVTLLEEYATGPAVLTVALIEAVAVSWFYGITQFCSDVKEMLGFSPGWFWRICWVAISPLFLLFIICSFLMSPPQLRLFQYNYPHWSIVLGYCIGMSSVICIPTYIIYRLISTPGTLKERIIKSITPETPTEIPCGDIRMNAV
Method: Briefly, frontal cortical membranes prepared from male Sprague-Dawley rats were incubated with ^3H-paroxetine (0.1 nM) for 60 min at 25°C. All tubes also contained either vehicle, test compound (one to eight concentrations), or a saturating concentration of fluoxetine (10 µM) to define specific binding. All reactions are terminated by the addition of ice cold Tris buffer followed by rapid filtration using a Tom Tech filtration device to separate bound from free ^3H-paroxetine.

5-HT1A cloned receptor = molecular target: T2, 5-HT1A cloned receptor (Homo sapiens, UniProt P08908); test: [35S]-GTPγS binding assay on 5-HT1A cloned receptor membrane fragments; format: biochemical; conditions: maximum agonist response defined by excess 8-OH-DPAT
T2 construct: expressed in transfected cells
T2 sequence (P08908 1-422): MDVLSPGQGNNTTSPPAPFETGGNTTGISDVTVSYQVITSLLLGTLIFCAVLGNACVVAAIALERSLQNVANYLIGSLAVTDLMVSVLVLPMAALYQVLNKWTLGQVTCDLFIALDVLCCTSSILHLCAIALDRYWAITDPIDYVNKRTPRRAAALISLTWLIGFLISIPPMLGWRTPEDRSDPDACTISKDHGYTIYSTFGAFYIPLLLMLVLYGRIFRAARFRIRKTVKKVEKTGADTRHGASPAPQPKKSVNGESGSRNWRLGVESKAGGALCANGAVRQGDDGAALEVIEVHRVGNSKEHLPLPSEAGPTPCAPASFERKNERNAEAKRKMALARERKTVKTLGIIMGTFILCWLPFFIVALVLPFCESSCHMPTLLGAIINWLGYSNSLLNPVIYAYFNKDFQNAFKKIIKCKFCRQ
Method: The [^35S]-GTPγS binding assay was similar to that used by Lazareno and Birdsall, Br. J. Pharmacol. 109:1120 (1993). Briefly, 5-HT1A cloned receptor membrane fragments (as used for 5-HT1A receptor binding assays) were stored at -70 °C until needed. When needed, membranes were rapidly thawed, centrifuged at 40,000 x g for 10 minutes and resuspended at 4 °C for 10 minutes in assay buffer (25 mM HEPES, 3 mM MgCl2, 100 mM NaCI, 1 mM EDTA, 10 uM GDP, […] DTT, pH 8.0). These membranes were then incubated for 30 min at 30 °C with [^35S]GTPgS (1 nM) in the presence of vehicle, test compound (one to eight concentrations), or excess 8-OH-DPAT to define maximum agonist response. All reactions are terminated by the addition of ice cold Tris buffer followed by rapid filtration using a Tom Tech® filtration device to separate bound from free [^35S]GTPgS. Agonists produce an increase in the amount of [^35S]GTPgS bound whereas antagonists produce no increase in binding. Bound radioactivity was counted and analyzed as above.

[1] = molecular target: T3, human 5-HT1A receptor subtype (Homo sapiens, UniProt P08908); test: 5-HT1A receptor binding assay with [3H]8-OH-DPAT on membranes of 5-HT1A.CHO cells; conditions: [3H]8-OH-DPAT 1.5 nM, CHO cell membranes
T3 construct: expressed in transfected cells
T3 sequence (P08908 1-422): T2 sequence (P08908 1-422)
Method: (§1) The PCR cloning of the human 5-HT1A receptor subtype from a human genomic library has been described previously Chanda et al., Mol. Pharmacol., 43:516 (1993). A stable Chinese hamster ovary cell line expressing the human 5-HT1A receptor subtype (5-HT1A.CHO cells) was employed throughout this study. Cells were maintained in DMEM supplemented with 10% foetal calf serum, non-essential amino acids and penicillin/ streptomycin.
Cells were grown to 95-100% confluency as a monolayer before membranes were harvested for binding studies. Cells were gently scraped from the culture plates, transferred to centrifuge tubes, and washed twice by centrifugation (2000 rpm for 10 min., 4°C) in buffer (50 mM Tris; pH 7.5). The resulting pellets were aliquoted and placed at -80°C. On the day of assay, the cells were thawed on ice, and resuspended in buffer. Studies were conducted using [^3H]8-OH-DPAT as the radioligand. The binding assay was performed in 96 well microtiter plates in a final total volume of 250 µL of buffer. Competition experiments were performed by using 7 concentrations of unlabelled drug and a final ligand concentration of 1.5 nM . Non-specific binding was determined in the presence of 10 µM 5HT. Saturation analysis was conducted by using [^3H]8-OH-DPAT at concentrations ranging from 0.3-30 nM. Following a 30 minute incubation at room temperature, the reaction was terminated by the addition of ice cold buffer and rapid filtration using a M-96 Brandel Cell Harvester (Gaithersburg, MD) through a GF/B filter presoaked for 30 minutes in 0.5% polyethyleneimine.

[2] = molecular target: T3, human 5-HT1A receptor subtype; test: cAMP formation in forskolin-treated cells (cAMP SPA assay); format: cell-based; conditions: forskolin 1 uM, 10 min at 37°C
Method: as §1
The following assays were performed by incubating the cells with DMEM containing 25 mM HEPES, 5 mM theophylline and 10 µM pargyline for a period of 20 minutes at 37°C. Functional activity was assessed by treating the cells with forskolin (1 uM final concentration) followed immediately by test compound (6 concentrations) for an additional 10 min at 37°C. In separate experiments, 6 concentrations of antagonist were preincubated for 20 min prior to the addition of 10 nM 8-OH-DPAT and forskolin. The reaction was terminated by removal of the media and addition of 0.5 ml ice cold assay buffer. Plates were stored at -20°C prior to assessment of cAMP formation by a cAMP SPA assay (Amersham).

**Q.** `COc1ccc(F)cc1OCCN[C@H]1CC[C@H](c2c[nH]c3cc(F)ccc32)CC1` [Example 2b, [(1,4-trans)-4-(6-Fluoro-1H-indol-3-yl)-cyclohexyl]-[2-(5-fluoro-2-methoxy-phenoxy)-ethyl]-amine] was tested. Which Ki (serotonin transporter) did it give?
**A.** 0.42 nM

**Q.** What about the Emax (5-HT1A cloned receptor) of the same compound?
**A.** 0%

**Q.** And the Ki [1]?
**A.** 47.8 nM

**Q.** And the Emax [2]?
**A.** 0%

**Q.** `Fc1ccc2[nH]cc([C@H]3CC[C@H](NCCOc4cccc5[nH]ccc45)CC3)c2c1` [Example 3b] was tested. Which Ki (serotonin transporter) did it give?
**A.** 2.5 nM

**Q.** What about the Emax (5-HT1A cloned receptor) of the same compound?
**A.** 62%

**Q.** What about the Ki [1] of the same compound?
**A.** 1.08 nM

**Q.** What about the Emax [2] of the same compound?
**A.** 90%

**Q.** Which Ki (serotonin transporter) does the source give for `Fc1cc2c(c(OCCN[C@H]3CC[C@H](c4c[nH]c5ccc(F)cc54)CC3)c1)OCCC2` [Example 5b, [2-(6-Fluoro-chroman-8-yloxy)-ethyl]-[(1,4-trans)-4-(5-fluoro-1H -indol-3-yl)-cyclohexyl]-amine] here?
**A.** 1.52 nM

**Q.** What about the Emax (5-HT1A cloned receptor) of the same compound?
**A.** 22%

**Q.** What about the Ki [1] of the same compound?
**A.** 19.4 nM

**Q.** What about the Emax [2] of the same compound?
**A.** 0%

**Q.** `N#Cc1ccc2[nH]cc([C@H]3CC[C@H](NCCOc4cc(F)cc5c4OCCC5)CC3)c2c1` [Example 5f, 3-{(1,4-trans)-4-[2-(6-Fluoro-chroman-8-yloxy)-ethylamino]-cyclohexyl}-1H-indole-5-carbonitrile] was tested. Which Ki (serotonin transporter) did it give?
**A.** 2.6 nM

**Q.** And the Emax (5-HT1A cloned receptor)?
**A.** 30%

**Q.** And the Ki [1]?
**A.** 10.1 nM

**Q.** What about the Emax [2] of the same compound?
**A.** 0%

**Q.** Which Ki (serotonin transporter) does the source give for `Cc1nc2c(OCCN[C@H]3CC[C@H](c4c[nH]c5ccc(F)cc54)CC3)cc(Cl)cc2[nH]1` [Example 8b, [2-(6-Chloro-2-methyl-1H-benzoimidazol-4-yloxy)-ethyl]-[(1,4-trans)-4-(5-fluoro-1H-indol-3-yl)-cyclohexyl]-amine] here?
**A.** 0.52 nM

**Q.** What about the Ki [1] of the same compound?
**A.** 18.9 nM

**Q.** And the Emax [2]?
**A.** 0%
